Measured values from the supplement of paper PMC10307832.

Key:
Test in all cases: relative viability (nuclei count vs DMSO), 5 days (fraction); higher = more cells survive
[1] = tested on: LXF-289
In short: (§1)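 Dosing by pin tool came one day after lung cancer cell lines were seeded in 1536-well plates, using either one drug or a fixed anchor-drug dose plus five library-drug doses (not always all listed) in √10 steps. After 5 days, nuclei were counted on 4× images. Relative viability is treated-well nuclei count divided by vehicle-well nuclei count, and values are medians of duplicate plates.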

[2] = tested on: NCI-H2085
In short: as §1

[3] = tested on: LCLC-97TM1
In short: as §1

[4] = tested on: NCI-H596
In short: as §1

[5] = tested on: NCI-H1793
In short: as §1

[6] = tested on: NCI-H441
In short: as §1

[7] = tested on: NCI-H1666
In short: as §1

[8] = tested on: HOP-62
In short: as §1

[9] = tested on: PC-14
In short: as §1

[10] = tested on: COR-L23
In short: as §1

[11] = tested on: NCI-H2126
In short: as §1

[12] = tested on: H3255
In short: as §1

[13] = tested on: NCI-H661
In short: as §1

[14] = tested on: NCI-H1437
In short: as §1

[15] = tested on: EPLC-272H
In short: as §1

[16] = tested on: NCI-H1650
In short: as §1

[17] = tested on: ChaGo-K-1
In short: as §1

[18] = tested on: HARA
In short: as §1

[19] = tested on: HCC-78
In short: as §1

[20] = tested on: NCI-H1944
In short: as §1

[21] = tested on: NCI-H1395
In short: as §1

[22] = tested on: NCI-H2087
In short: as §1

[23] = tested on: NCI-H3122
In short: as §1

Q: What does the source list for `CN1CCN(CCOc2cc(OC3CCOCC3)c3c(Nc4c(Cl)ccc5c4OCO5)ncnc3c2)CC1` [Saracatinib] + O=C(CCCCCCC(=O)Nc1ccccc1)NO [Vorinostat] (partner 1 µM)?
A: relative viability ([1]; first compound 0.02 µM): 0.78; relative viability ([1]; first compound 0.2 µM): 0.573; relative viability ([1]; first compound 0.6325 µM): 0.773; relative viability ([1]; first compound 2 µM): 0.715; relative viability ([2]; first compound 0.02 µM): 0.816; relative viability ([2]; first compound 0.2 µM): 0.694; relative viability ([2]; first compound 0.6325 µM): 0.896; relative viability ([2]; first compound 2 µM): 0.815; relative viability ([3]; first compound 0.02 µM): 0.775; relative viability ([3]; first compound 0.2 µM): 0.411; relative viability ([3]; first compound 0.6325 µM): 0.839; relative viability ([3]; first compound 2 µM): 0.554; relative viability ([4]; first compound 0.02 µM): 0.568; relative viability ([4]; first compound 0.2 µM): 0.511; relative viability ([4]; first compound 0.6325 µM): 0.585; relative viability ([4]; first compound 2 µM): 0.406; relative viability ([5]; first compound 0.02 µM): 0.878; relative viability ([5]; first compound 0.2 µM): 0.482; relative viability ([5]; first compound 0.6325 µM): 0.842; relative viability ([5]; first compound 2 µM): 0.601; relative viability ([6]; first compound 0.02 µM): 0.84; relative viability ([6]; first compound 0.2 µM): 0.731; relative viability ([6]; first compound 0.6325 µM): 0.913; relative viability ([6]; first compound 2 µM): 0.94; relative viability ([7]; first compound 0.02 µM): 0.988; relative viability ([7]; first compound 0.2 µM): 0.914; relative viability ([7]; first compound 0.6325 µM): 1.12; relative viability ([7]; first compound 2 µM): 1.2; relative viability ([8]; first compound 0.02 µM): 0.624; relative viability ([8]; first compound 0.2 µM): 0.611; relative viability ([8]; first compound 0.6325 µM): 0.769; relative viability ([8]; first compound 2 µM): 0.618; relative viability ([9]; first compound 0.02 µM): 0.759; relative viability ([9]; first compound 0.2 µM): 0.247; relative viability ([9]; first compound 0.6325 µM): 0.163; relative viability ([9]; first compound 2 µM): 0.0854; relative viability ([10]; first compound 0.02 µM): 0.361; relative viability ([10]; first compound 0.2 µM): 0.41; relative viability ([10]; first compound 0.6325 µM): 0.469; relative viability ([10]; first compound 2 µM): 0.406; relative viability ([11]; first compound 0.02 µM): 0.936; relative viability ([11]; first compound 0.2 µM): 0.647; relative viability ([11]; first compound 0.6325 µM): 0.713; relative viability ([11]; first compound 2 µM): 0.539; relative viability ([12]; first compound 0.02 µM): 0.79; relative viability ([12]; first compound 0.2 µM): 0.684; relative viability ([12]; first compound 0.6325 µM): 0.965; relative viability ([12]; first compound 2 µM): 0.337; relative viability ([13]; first compound 0.02 µM): 0.798; relative viability ([13]; first compound 0.2 µM): 0.808; relative viability ([13]; first compound 0.6325 µM): 0.81; relative viability ([13]; first compound 2 µM): 0.693; relative viability ([14]; first compound 0.02 µM): 1.05; relative viability ([14]; first compound 0.2 µM): 0.995; relative viability ([14]; first compound 0.6325 µM): 1.14; relative viability ([14]; first compound 2 µM): 1.17; relative viability ([15]; first compound 0.02 µM): 0.306; relative viability ([15]; first compound 0.2 µM): 0.562; relative viability ([15]; first compound 0.6325 µM): 0.63; relative viability ([15]; first compound 2 µM): 0.424; relative viability ([16]; first compound 0.02 µM): 0.654; relative viability ([16]; first compound 0.2 µM): 0.377; relative viability ([16]; first compound 0.6325 µM): 0.548; relative viability ([16]; first compound 2 µM): 0.492; relative viability ([17]; first compound 0.02 µM): 0.797; relative viability ([17]; first compound 0.2 µM): 0.55; relative viability ([17]; first compound 0.6325 µM): 0.785; relative viability ([17]; first compound 2 µM): 0.65; relative viability ([18]; first compound 0.02 µM): 0.505; relative viability ([18]; first compound 0.2 µM): 0.654; relative viability ([18]; first compound 0.6325 µM): 0.62; relative viability ([18]; first compound 2 µM): 0.572; relative viability ([19]; first compound 0.02 µM): 0.459; relative viability ([19]; first compound 0.6325 µM): 0.476; relative viability ([19]; first compound 2 µM): 0.427; relative viability ([20]; first compound 0.02 µM): 0.54; relative viability ([20]; first compound 0.2 µM): 0.542; relative viability ([20]; first compound 0.6325 µM): 0.509; relative viability ([20]; first compound 2 µM): 0.358; relative viability ([21]; first compound 0.02 µM): 0.766; relative viability ([21]; first compound 0.2 µM): 0.632; relative viability ([21]; first compound 0.6325 µM): 0.706; relative viability ([21]; first compound 2 µM): 0.464; relative viability ([22]; first compound 0.02 µM): 0.696; relative viability ([22]; first compound 0.2 µM): 0.564; relative viability ([22]; first compound 0.6325 µM): 0.54; relative viability ([22]; first compound 2 µM): 0.95; relative viability ([23]; first compound 0.02 µM): 0.984; relative viability ([23]; first compound 0.2 µM): 0.553; relative viability ([23]; first compound 0.6325 µM): 0.891; relative viability ([23]; first compound 2 µM): 0.788
